{"source": "ChEMBL document CHEMBL1201862", "about": "“PubChem BioAssay data set” (2004)", "key": {"[1]": {"target": "Cyclin-dependent kinase 5/CDK5 activator 1 (Homo sapiens, UniProt Q00535)", "sequence (Q00535 whole entry)": "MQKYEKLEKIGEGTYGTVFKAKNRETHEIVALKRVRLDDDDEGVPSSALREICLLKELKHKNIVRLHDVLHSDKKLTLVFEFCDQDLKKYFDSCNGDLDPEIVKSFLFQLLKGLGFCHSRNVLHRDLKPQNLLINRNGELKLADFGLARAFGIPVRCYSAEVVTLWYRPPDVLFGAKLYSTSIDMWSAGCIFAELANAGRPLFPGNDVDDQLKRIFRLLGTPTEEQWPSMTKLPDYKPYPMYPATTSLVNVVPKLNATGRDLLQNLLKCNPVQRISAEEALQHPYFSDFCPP", "sequence (Q15078 whole entry, further chain)": "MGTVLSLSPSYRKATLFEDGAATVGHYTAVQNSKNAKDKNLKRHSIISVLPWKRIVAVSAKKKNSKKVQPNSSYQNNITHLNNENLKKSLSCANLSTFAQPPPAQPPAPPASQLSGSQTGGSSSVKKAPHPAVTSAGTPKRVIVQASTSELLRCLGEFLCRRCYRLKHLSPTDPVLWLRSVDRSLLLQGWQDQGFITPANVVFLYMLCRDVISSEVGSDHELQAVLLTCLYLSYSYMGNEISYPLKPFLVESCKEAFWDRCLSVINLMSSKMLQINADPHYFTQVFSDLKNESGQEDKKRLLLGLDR", "test": "CDK5-p25 kinase inhibitors, specificity check, dose response, selectivity assay for GSK-3 alpha inhibitor project, biochemical, microfluidic mobility shift, dry powder (AID 588430)"}, "[2]": {"target": "Glycogen synthase kinase-3 alpha (Homo sapiens, UniProt P49840)", "sequence (P49840 whole entry)": "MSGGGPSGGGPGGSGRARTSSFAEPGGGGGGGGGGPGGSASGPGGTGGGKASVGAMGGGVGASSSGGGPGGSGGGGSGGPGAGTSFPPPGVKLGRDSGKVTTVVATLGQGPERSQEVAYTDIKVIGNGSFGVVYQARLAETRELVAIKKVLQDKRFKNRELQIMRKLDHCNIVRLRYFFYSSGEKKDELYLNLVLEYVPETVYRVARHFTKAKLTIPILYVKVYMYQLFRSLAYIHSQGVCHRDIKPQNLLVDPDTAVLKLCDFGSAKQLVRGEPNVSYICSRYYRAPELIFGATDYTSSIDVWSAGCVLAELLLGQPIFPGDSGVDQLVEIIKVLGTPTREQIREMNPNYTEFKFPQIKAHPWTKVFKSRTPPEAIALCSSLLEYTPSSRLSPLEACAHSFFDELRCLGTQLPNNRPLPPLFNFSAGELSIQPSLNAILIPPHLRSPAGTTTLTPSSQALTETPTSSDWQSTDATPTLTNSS", "test": "Inhibition of Human GSK-3 alpha Activity Measured in Biochemical System Using Microfluidics - 2063-06_Inhibitor_Dose_DryPowder_Activity_Set2. [Related pubchem assays (depositor defined):AID2709]"}, "[3]": {"target": "Glycogen synthase kinase-3 beta (Homo sapiens, UniProt P49841)", "sequence (P49841 whole entry)": "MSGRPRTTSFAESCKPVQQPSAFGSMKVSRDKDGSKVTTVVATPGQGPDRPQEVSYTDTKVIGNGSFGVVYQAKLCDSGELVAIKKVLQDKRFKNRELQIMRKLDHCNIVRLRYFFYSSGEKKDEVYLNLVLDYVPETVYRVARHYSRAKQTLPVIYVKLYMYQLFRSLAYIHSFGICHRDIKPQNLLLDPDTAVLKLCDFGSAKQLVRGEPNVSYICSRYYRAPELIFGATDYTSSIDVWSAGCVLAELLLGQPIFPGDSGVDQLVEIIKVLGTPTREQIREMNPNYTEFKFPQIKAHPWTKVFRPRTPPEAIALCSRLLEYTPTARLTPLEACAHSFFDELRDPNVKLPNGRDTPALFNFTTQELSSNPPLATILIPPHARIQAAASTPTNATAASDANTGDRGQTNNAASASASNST", "test": "Inhibition of Human GSK-3 beta Activity Measured in Biochemical System Using Microfluidics - 2063-05_Inhibitor_Dose_DryPowder_Activity_Set2. [Related pubchem assays (depositor defined):AID2709]"}, "[4]": {"target": "T1, High affinity choline transporter 1 (Homo sapiens, UniProt Q9GZV3)", "T1 sequence (Q9GZV3 whole entry)": "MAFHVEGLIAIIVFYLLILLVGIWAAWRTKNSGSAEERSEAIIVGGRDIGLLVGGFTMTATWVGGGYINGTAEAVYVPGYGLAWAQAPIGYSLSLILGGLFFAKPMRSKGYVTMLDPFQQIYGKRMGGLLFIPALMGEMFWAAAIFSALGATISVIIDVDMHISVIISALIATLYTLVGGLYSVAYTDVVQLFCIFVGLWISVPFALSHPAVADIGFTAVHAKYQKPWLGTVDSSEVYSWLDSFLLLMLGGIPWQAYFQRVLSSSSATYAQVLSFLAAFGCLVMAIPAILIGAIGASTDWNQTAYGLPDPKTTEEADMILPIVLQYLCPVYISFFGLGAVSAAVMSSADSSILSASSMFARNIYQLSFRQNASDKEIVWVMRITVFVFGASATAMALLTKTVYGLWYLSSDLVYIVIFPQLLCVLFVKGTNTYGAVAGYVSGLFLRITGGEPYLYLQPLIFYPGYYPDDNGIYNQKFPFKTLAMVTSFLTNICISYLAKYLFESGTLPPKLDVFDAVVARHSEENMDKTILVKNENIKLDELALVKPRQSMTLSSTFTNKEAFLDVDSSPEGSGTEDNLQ", "test": "CHT activators, dose response, cell-based, 10-point CRC, membrane potential dye (AID 602376)", "assay_type": "functional"}, "[5]": {"target": "T2, Sentrin-specific protease 6 (Homo sapiens, UniProt Q9GZR1)", "T2 sequence (Q9GZR1 whole entry)": "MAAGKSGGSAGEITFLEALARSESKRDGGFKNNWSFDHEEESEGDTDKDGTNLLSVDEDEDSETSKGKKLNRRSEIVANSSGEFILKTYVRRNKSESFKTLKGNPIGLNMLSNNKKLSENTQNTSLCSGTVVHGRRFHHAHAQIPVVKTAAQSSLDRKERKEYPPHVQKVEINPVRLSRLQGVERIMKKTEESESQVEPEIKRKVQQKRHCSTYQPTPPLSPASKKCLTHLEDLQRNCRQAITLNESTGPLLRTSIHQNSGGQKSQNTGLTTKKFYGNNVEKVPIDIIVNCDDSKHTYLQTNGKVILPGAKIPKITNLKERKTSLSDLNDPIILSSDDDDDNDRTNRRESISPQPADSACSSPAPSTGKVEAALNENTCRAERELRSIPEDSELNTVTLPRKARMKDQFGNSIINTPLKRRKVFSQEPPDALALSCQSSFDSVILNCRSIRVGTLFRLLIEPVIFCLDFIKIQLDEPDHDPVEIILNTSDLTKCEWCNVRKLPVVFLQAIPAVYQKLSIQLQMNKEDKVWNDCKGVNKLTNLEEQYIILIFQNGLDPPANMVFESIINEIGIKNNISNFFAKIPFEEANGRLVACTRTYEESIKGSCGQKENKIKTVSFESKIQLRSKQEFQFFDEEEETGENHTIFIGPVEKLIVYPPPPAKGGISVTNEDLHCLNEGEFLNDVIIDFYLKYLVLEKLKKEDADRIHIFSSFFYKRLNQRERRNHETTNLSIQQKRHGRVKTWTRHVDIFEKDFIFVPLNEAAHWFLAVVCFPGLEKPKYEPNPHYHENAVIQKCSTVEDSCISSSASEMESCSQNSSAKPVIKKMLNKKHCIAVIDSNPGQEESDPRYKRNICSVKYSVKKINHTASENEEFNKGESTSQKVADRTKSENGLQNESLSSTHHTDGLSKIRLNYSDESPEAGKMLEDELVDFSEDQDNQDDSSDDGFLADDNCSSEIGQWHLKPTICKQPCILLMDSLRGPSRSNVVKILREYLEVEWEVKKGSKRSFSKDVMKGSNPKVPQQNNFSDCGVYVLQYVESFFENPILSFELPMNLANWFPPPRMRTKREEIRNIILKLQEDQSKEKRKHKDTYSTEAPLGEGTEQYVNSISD", "test": "SENP6 protease inhibitors, SAR follow-up, biochemical, luminescence, set 2 (AID 588598)", "assay_type": "functional"}, "[6]": {"target": "T3, Sentrin-specific protease 8 (Homo sapiens, UniProt Q96LD8)", "T3 sequence (Q96LD8 whole entry)": "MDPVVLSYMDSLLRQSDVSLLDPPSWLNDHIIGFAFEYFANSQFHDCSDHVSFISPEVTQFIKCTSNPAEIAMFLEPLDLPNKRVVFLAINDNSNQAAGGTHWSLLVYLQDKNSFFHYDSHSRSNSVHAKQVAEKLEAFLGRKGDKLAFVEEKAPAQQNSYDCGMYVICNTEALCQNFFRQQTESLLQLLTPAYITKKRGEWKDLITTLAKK", "test": "SENP8 protease inhibitors, SAR follow-up, biochemical, luminescence (AID 504501)", "assay_type": "functional"}, "[7]": {"target": "T2, Sentrin-specific protease 6", "test": "SAR Analysis of small molecule inhibitors of Sentrin-specific protease 6 (SENP6) using a Luminescent assay. [Related pubchem assays (depositor defined):AID2582, AID2599]", "assay_type": "functional"}, "[8]": {"target": "T4, Sentrin-specific protease 7 (Homo sapiens, UniProt Q9BQF6)", "T4 sequence (Q9BQF6 whole entry)": "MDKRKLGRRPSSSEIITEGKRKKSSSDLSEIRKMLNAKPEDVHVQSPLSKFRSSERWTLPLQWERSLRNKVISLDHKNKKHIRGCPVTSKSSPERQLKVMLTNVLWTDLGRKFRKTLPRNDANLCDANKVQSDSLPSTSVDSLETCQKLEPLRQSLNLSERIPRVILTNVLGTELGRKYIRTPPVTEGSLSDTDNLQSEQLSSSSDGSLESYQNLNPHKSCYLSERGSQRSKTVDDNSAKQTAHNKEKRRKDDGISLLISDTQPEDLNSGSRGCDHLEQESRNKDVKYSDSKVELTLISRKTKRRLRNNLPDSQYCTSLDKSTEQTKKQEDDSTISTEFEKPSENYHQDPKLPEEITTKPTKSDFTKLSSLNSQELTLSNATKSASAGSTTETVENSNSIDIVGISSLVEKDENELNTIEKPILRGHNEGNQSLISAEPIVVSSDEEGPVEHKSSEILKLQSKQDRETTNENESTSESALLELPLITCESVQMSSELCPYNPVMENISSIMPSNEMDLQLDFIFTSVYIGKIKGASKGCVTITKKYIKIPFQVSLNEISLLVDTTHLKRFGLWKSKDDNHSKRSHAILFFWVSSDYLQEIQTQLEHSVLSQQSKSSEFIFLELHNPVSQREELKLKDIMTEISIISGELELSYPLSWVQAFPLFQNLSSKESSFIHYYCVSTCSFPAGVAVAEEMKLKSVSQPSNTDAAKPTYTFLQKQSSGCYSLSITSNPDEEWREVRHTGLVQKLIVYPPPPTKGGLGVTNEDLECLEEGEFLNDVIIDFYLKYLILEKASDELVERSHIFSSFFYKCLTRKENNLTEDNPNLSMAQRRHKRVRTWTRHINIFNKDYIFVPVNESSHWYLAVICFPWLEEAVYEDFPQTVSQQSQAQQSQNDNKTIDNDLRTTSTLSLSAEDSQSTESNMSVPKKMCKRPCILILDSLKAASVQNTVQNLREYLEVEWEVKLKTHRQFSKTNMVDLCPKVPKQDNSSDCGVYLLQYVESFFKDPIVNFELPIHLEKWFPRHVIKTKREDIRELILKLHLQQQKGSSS", "test": "SENP7 protease inhibitors, SAR follow-up, biochemical, luminescence, set 2 (AID 588600)", "assay_type": "functional"}, "[9]": {"target": "T5, Caspase-3 (Homo sapiens, UniProt P42574)", "T5 sequence (P42574 whole entry)": "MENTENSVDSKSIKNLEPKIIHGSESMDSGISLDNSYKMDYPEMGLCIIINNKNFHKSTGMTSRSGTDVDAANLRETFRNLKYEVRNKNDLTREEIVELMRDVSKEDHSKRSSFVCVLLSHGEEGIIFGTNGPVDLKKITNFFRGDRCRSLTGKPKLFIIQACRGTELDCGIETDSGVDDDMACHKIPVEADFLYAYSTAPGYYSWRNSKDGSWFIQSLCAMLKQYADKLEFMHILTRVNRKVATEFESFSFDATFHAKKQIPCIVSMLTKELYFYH", "test": "SAR Analysis of small molecule inhibitors of Sentrin-specific proteases (SENPs) using a Caspase-3 Selectivity assay. [Related pubchem assays (depositor defined):AID2540, AID2599, AID434973, AID489001]", "assay_type": "functional"}, "[10]": {"target": "T5, Caspase-3", "test": "caspase-3 inhibitors as off-family protease, SAR follow-up, selectivity assay for SENP protease inhibitor project, biochemical, luminescence, set 2 (AID 588599)", "assay_type": "functional"}, "[11]": {"target": "T4, Sentrin-specific protease 7", "test": "SENP7 protease inhibitors, SAR follow-up, biochemical, luminescence (AID 504497)", "assay_type": "functional"}, "[12]": {"target": "T3, Sentrin-specific protease 8", "test": "SENP8 protease inhibitors, SAR follow-up, biochemical, luminescence, set 2 (AID 588601)", "assay_type": "functional"}, "[13]": {"target": "Beta-lactamase (Pseudomonas aeruginosa, UniProt Q79MP6)", "sequence (Q79MP6 whole entry)": "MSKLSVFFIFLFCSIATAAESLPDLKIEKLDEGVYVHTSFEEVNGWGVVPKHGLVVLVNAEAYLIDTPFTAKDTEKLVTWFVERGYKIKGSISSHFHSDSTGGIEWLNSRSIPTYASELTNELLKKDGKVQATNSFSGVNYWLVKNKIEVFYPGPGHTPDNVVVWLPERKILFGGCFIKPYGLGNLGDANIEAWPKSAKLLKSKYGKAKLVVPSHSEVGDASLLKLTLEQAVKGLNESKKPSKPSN"}, "[14]": {"test_system": "CHO", "test": "cytotoxicity in TLR9-MyD88 CHO cells, dose response, cytotoxicity control for TLR9-MyD88 binding inhibitor project, cell-based, luminescence (AID 588339);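 also: CHO cells stably coexpressing TLR9 and MyD88 fusions from primary screen; compound exposure lasted 48 hours before viability readout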", "assay_type": "functional, hamster", "conditions": "Cricetulus griseus"}, "[15]": {"target": "T6, Zinc finger protein mex-5 (Caenorhabditis elegans, UniProt Q9XUB2)", "T6 sequence (Q9XUB2 whole entry)": "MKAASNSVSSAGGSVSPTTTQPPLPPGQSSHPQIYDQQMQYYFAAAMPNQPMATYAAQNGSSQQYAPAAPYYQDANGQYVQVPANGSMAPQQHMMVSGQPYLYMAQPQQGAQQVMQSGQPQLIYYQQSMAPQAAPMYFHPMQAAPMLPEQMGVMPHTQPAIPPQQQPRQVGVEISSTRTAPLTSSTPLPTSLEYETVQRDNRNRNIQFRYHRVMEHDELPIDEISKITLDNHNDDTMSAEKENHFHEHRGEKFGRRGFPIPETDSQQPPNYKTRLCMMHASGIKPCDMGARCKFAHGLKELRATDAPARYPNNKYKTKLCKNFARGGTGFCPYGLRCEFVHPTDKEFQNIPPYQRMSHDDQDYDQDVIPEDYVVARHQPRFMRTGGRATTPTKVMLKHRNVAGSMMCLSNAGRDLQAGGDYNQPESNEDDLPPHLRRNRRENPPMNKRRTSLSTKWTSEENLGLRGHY", "test": "MEX-5/TCR-2 RNA interaction inhibitors, dose response, biochemical, C. elegans, fluorescence polarization (AID 1960)"}, "[16]": {"target": "Beta Lactamase (Pseudomonas aeruginosa, UniProt Q932Y6)", "sequence (Q932Y6 whole entry)": "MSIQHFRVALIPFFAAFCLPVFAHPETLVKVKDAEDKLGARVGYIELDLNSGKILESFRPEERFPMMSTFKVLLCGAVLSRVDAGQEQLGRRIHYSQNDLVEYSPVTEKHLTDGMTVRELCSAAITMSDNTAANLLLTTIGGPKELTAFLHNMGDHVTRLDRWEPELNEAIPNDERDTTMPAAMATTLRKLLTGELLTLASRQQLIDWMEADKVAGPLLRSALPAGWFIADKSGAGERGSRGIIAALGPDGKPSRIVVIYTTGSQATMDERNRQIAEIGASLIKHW", "test": "beta-lactamase reporter inhibitor potency, dose response, artefact control for TLR9-MyD88 binding inhibitor project, BLA reporter cells, FRET fluorescence (AID 588341);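 also: cell based assay in CHO-K1 cells stably expressing beta-lactamase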", "assay_type": "cell-based"}, "[17]": {"target": "T7, RNA-binding protein pos-1 (Caenorhabditis elegans, UniProt G5EF15)", "T7 sequence (G5EF15 whole entry)": "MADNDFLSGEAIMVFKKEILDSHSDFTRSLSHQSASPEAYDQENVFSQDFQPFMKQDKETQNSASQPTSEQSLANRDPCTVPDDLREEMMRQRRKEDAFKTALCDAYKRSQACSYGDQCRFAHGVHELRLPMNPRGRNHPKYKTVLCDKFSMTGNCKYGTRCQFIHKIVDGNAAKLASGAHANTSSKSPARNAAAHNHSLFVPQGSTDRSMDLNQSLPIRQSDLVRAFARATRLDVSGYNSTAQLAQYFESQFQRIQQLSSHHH", "test": "inhibitors of POS-1/mex-3 RNA binding, dose response, biochemical, fluorescence polarization (AID 1964);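 also: purified POS-1 fused to maltose binding protein made in E. coli; potency of compounds blocking POS-1 binding to fluorescent RNA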"}, "[18]": {"target": "Beta-lactamase (Salmonella choleraesuis (strain SC-B67), UniProt Q5J463)", "sequence (Q5J463 whole entry)": "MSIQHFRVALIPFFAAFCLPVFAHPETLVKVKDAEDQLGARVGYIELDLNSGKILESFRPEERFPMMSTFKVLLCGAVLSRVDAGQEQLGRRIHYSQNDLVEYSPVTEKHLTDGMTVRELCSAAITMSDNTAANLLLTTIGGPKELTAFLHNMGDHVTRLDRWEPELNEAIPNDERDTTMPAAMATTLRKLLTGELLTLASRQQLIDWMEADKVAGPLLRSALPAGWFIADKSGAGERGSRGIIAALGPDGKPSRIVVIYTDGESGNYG"}}, "note": "Activity calls are given as the source filed them.", "data": [{"smiles": "O=C(CN1C(=O)CCC1=O)Nc1cccc2c1C(=O)NC2=O", "values": [{"measurement": "AC50", "setting": "[1]", "result": "20.2 µM (active)"}, {"measurement": "AC50", "setting": "[2]", "result": "0.459 µM (active)"}, {"measurement": "AC50", "setting": "[3]", "result": "0.261 µM (active)"}]}, {"smiles": "CN(Cc1ccc(F)cc1)C(=O)c1sccc1-c1ccccc1", "values": [{"measurement": "EC50", "setting": "[4]", "result": "18.2 µM (active)"}]}, {"smiles": "CCCCc1ccc2nc(NC(=O)c3ccco3)sc2c1", "values": [{"measurement": "IC50", "setting": "[5]", "result": "2.89 µM (active)"}, {"measurement": "IC50", "setting": "[6]", "result": "2 µM (active)"}, {"measurement": "IC50", "setting": "[7]", "result": "1.8 µM (active)"}, {"measurement": "IC50", "setting": "[8]", "result": "3.3 µM (active)"}, {"measurement": "IC50", "setting": "[9]", "result": "4 µM (active)"}, {"measurement": "IC50", "setting": "[10]", "result": "3.36 µM (active)"}, {"measurement": "IC50", "setting": "[11]", "result": "1.6 µM (active)"}, {"measurement": "IC50", "setting": "[12]", "result": "2.95 µM (active)"}]}, {"smiles": "CCN(CC)c1ccc(/C=C/C(=O)c2ccc(Br)cc2)cc1", "values": [{"measurement": "IC50", "setting": "[13]", "result": "11 µM (inactive)"}, {"measurement": "IC50", "setting": "[14]", "result": "> 49.7 µM (inactive)"}, {"measurement": "EC50", "setting": "[15]", "result": "13.5 µM (inconclusive)"}, {"measurement": "IC50", "setting": "[16]", "result": "3.82 µM (active)"}, {"measurement": "EC50", "setting": "[17]", "result": "13.8 µM (inconclusive)"}, {"measurement": "IC50", "setting": "[18]", "result": "3.09 µM (active)"}]}]}
